Reference: US7964624B1, “Inhibitors of serine proteases” (priority 2005, dated 2011)
Read-outs that look alike come from different tables or passages of the source.

Target: T1, full-length hepatitis C viral protein NS3•4A (Hepatitis C virus genotype 1a, UniProt P27958)
T1 construct: hexa-histidine (N); made in house; host or cells: Sf9 insect cells (baculovirus, pVL1392)
Assay: biochemical
Design: species or system HCV sub-type strain 1a

[1] = Enzyme Assay 2 (HCV NS3 Peptide Cleavage Assay) activity, apparent Ki class
[2] = Enzyme Assay 2, HCV NS3 Peptide Cleavage Assay, apparent Ki

Structure (SMILES) | Ki [1] [nM] | Ki [2] [nM] | further results
CNC(=O)C(=O)[C@H](CC1CC1)NC(=O)[C@@H]1C[C@]2(CC(c3cc(C)c(OC)c(C)c3)=NO2)CN1C(=O)[C@@H](NC(=O)CC1CCCCC1)C(C)(C)C [Compound 725] | < 100 |  | 
COc1c(C)cc(C2=NO[C@]3(C2)C[C@@H](C(=O)N[C@@H](CC2CC2)C(=O)C(N)=O)N(C(=O)[C@@H](NC(=O)CC2CCCCC2)C(C)(C)C)C3)cc1C [Compound 726] | < 100 |  | 
CCC[C@H](NC(=O)[C@@H]1C[C@]2(CC(c3cc(C)c(OC)c(C)c3)=NO2)CN1C(=O)[C@@H](NC(=O)CC1CCCCCC1)C(C)(C)C)C(=O)C(N)=O [Compound 728] | < 100 |  | 
COc1c(C)cc(C2=NO[C@]3(C2)C[C@@H](C(=O)N[C@@H](CC2CC2)C(=O)C(N)=O)N(C(=O)[C@@H](NC(=O)CC2CCCCCC2)C(C)(C)C)C3)cc1C [Compound 730] | < 100 |  | 
CCC[C@H](NC(=O)[C@@H]1C[C@]2(CC(c3cc(C)c(OC)c(C)c3)=NO2)CN1C(=O)[C@@H](NC(=O)CC(C)(C)C)C(C)(C)C)C(=O)C(N)=O [Compound 733] | < 100 |  | 
CNC(=O)C(=O)[C@H](CC1CC1)NC(=O)[C@@H]1C[C@]2(CC(c3cccc(Cl)c3)=NO2)CN1C(=O)[C@@H](NC(=O)[C@H]1C[C@@H]1c1cccs1)C(C)(C)C [Compound 739] | < 100 |  | 
CNC(=O)C(=O)[C@H](CC1CCC1)NC(=O)[C@@H]1C[C@]2(CC(c3cccc(Cl)c3)=NO2)CN1C(=O)[C@@H](NC(=O)CC1CCCCC1)C(C)(C)C [Compound 741] | < 100 |  | 
CNC(=O)C(=O)[C@H](CC1CC1)NC(=O)[C@@H]1C[C@]2(CC(c3cc(Cl)c(OC)cc3OC)=NO2)CN1C(=O)[C@@H](NC(=O)OC1CCCC1)C(C)(C)C [Compound 744] | < 100 |  | 
COc1cc(OC)c(C2=NO[C@]3(C2)C[C@@H](C(=O)N[C@@H](CC2CC2)C(=O)C(=O)NC2CC2)N(C(=O)[C@@H](NC(=O)OC(C)(C)C)C(C)(C)C)C3)cc1Cl [Compound 745] | < 100 |  | 
CNC(=O)C(=O)[C@H](CC1CC1)NC(=O)C1C[C@]2(CC(c3cccc(Cl)c3)=NO2)CN1C(=O)[C@@H](NC(=O)C1CCC1)C(C)(C)C (stereo partly shown) [Compound 749] | < 100 |  | 
CNC(=O)C(=O)[C@H](CC1CC1)NC(=O)[C@@H]1C[C@]2(CC(c3cccc(Cl)c3)=NO2)CN1C(=O)[C@@H](NC(=O)[C@H]1C[C@@H]1C(C)C)C(C)(C)C [Compound 755] | < 100 |  | 
COc1c(C)cc(C2=NO[C@]3(C2)C[C@@H](C(=O)N[C@@H](CC2CC2)C(=O)C(=O)NC2CC2)N(C(=O)[C@@H](NC(=O)OC(C)(C)C)C(C)(C)C)C3)cc1C [Compound 757] | < 100 |  | 
CCC[C@H](NC(=O)[C@@H]1C[C@]2(CC(c3cc(C)c(OC)c(C)c3)=NO2)CN1C(=O)[C@@H](NC(=O)OC1CCCC1)C(C)(C)C)C(=O)C(N)=O [Compound 760] | < 100 |  | 
COc1c(C)cc(C2=NO[C@]3(C2)C[C@@H](C(=O)N[C@@H](CC2CC2)C(=O)C(=O)NC2CC2)N(C(=O)[C@@H](NC(=O)CC2CCCCC2)C(C)(C)C)C3)cc1C [Compound 764] | 100 to 500 |  | 
CNC(=O)C(=O)C(CC1CC1)NC(=O)[C@@H]1C[C@]2(CC(c3cc(C)c(OC)c(C)c3)=NO2)CN1C(=O)[C@@H](NC(=O)OC1CCCC1)C(C)(C)C (stereo partly shown) [Compound 768] | 100 to 500 |  | 
COc1c(C)cc(C2=NO[C@]3(C2)C[C@@H](C(=O)NC(CC2CC2)C(=O)C(N)=O)N(C(=O)[C@@H](NC(=O)OC2CCCC2)C(C)(C)C)C3)cc1C (stereo partly shown) [Compound 769] | 100 to 500 |  | 
CCC[C@H](NC(=O)[C@@H]1C[C@]2(CC(c3ccc(NC)c(Cl)c3)=NO2)CN1C(=O)[C@@H](NC(=O)CC1CCCCC1)C(C)(C)C)C(=O)C(=O)NC1CC1 [Compound 771] | < 100 |  | 
CCC[C@H](NC(=O)[C@@H]1C[C@]2(CC(c3cccc(Cl)c3)=NO2)CN1C(=O)[C@@H](NC(=O)CC(C)(C)OC)C(C)(C)C)C(=O)C(=O)NC1CC1 [Compound 772] | < 100 |  | 
CNC(=O)C(=O)[C@H](CC1CC1)NC(=O)[C@@H]1C[C@]2(CC(c3cccc(Cl)c3)=NO2)CN1C(=O)[C@@H](NC(=O)CC(C)(C)OC)C(C)(C)C [Compound 773] | 100 to 500 |  | 
CNC(=O)C(=O)[C@H](CC1CC1)NC(=O)[C@@H]1C[C@]2(CC(c3cccc(Cl)c3)=NO2)CN1C(=O)[C@@H](NC(=O)CC1CC2CCC1C2)C(C)(C)C (stereo partly shown) [Compound 777] |  |  | Ki (read-out: Enzyme Assay 2 (HCV NS3 Peptide Cleavage Assay) activity, apparent Ki class): < 100 nM
CCC[C@H](NC(=O)[C@@H]1C[C@]2(CC(c3cccc(Cl)c3)=NO2)CN1C(=O)[C@@H](NC(=O)CC1CC2CCC1C2)C(C)(C)C)C(=O)C(N)=O (stereo partly shown) [Compound 779] | < 100 |  | 
CCC[C@H](NC(=O)[C@@H]1C[C@]2(CC(c3cc(C)c(OCC)c(Cl)c3)=NO2)CN1C(=O)[C@@H](NC(=O)OC1CCCC1)C(C)(C)C)C(=O)C(=O)NC [Compound 785] | < 100 |  | 
CCC[C@H](NC(=O)[C@@H]1C[C@]2(CC(c3cccc(Cl)n3)=NO2)CN1C(=O)[C@@H](NC(=O)CC1CCCCC1)C(C)(C)C)C(=O)C(=O)NC1CC1 [Compound 786] | 100 to 500 |  | 

Structure (SMILES) | Ki [1] [nM] | Ki [2] [nM] | further results
CNC(=O)C(=O)[C@H](CC1CC1)NC(=O)[C@@H]1C[C@]2(CC(c3cc(C)c(OC)c(C)c3)=NO2)CN1C(=O)[C@@H](NC(=O)CC1CCCCC1)C(C)(C)OC [Compound 788] | < 100 |  | 
CNC(=O)C(=O)[C@H](CC1CC1)NC(=O)[C@@H]1C[C@]2(CC(c3cc(C)c(OC)c(C)c3)=NO2)CN1C(=O)[C@@H](NC(=O)[C@@H]1CC1c1ccccc1)C(C)(C)C (stereo partly shown) [Compound 798] |  | < 100 | 
CCC[C@H](NC(=O)[C@@H]1C[C@]2(CC(c3cc(Cl)c(OC)cc3OC)=NO2)CN1C(=O)[C@@H](NC(=O)[C@@H]1CC1c1ccccc1)C(C)(C)C)C(=O)C(N)=O (stereo partly shown) [Compound 801] |  | < 100 | 
CCC[C@H](NC(=O)[C@@H]1C[C@]2(CC(c3cc(Cl)ccc3N(C)C)=NO2)CN1C(=O)[C@@H](NC(=O)CC1CCCCC1)C(C)(C)C)C(=O)C(=O)NC1CC1 [Compound 803] |  | 100 to 500 | 
CC(C)(C)[C@H](NC(=O)[C@H]1C[C@@H]1c1ccccc1)C(=O)N1C[C@@]2(CC(c3cccc4cccnc34)=NO2)C[C@H]1C(=O)N[C@@H](CC1CC1)C(=O)C(N)=O [Compound 805] |  | < 100 | 
CC(C)(C)[C@H](NC(=O)[C@@H]1C[C@H]1c1ccccc1)C(=O)N1C[C@@]2(CC(c3cccc4cccnc34)=NO2)C[C@H]1C(=O)N[C@@H](CC1CC1)C(=O)C(N)=O [Compound 806] |  | < 100 | 
CNC(=O)C(=O)[C@H](CC1CC1)NC(=O)[C@@H]1C[C@]2(CC(c3cccc4cccnc34)=NO2)CN1C(=O)[C@@H](NC(=O)[C@H]1C[C@@H]1c1ccccc1)C(C)(C)C [Compound 807] |  | 100 to 500 | 
COc1c(C)cc(C2=NO[C@]3(C2)C[C@@H](C(=O)N[C@@H](CC2CC2)C(=O)C(N)=O)N(C(=O)[C@@H](NC(=O)[C@@H]2C[C@H]2c2ccccc2)C(C)(C)C)C3)cc1Cl [Compound 811] |  | < 100 | 
CCOc1c(C)cc(C2=NO[C@]3(C2)C[C@@H](C(=O)N[C@@H](CC2CC2)C(=O)C(=O)NC)N(C(=O)[C@@H](NC(=O)OC2CCCC2)C(C)(C)C)C3)cc1Cl [Compound 817] |  | < 100 | 
CCC[C@H](NC(=O)[C@@H]1C[C@]2(CC(c3cc(Cl)c(OCC)cc3OC)=NO2)CN1C(=O)[C@@H](NC(=O)CC1CCCCC1)C(C)(C)C)C(=O)C(=O)NC1CC1 [Compound 818] |  | < 100 | 
CCC[C@H](NC(=O)[C@@H]1C[C@]2(CC(c3cc(Cl)c(C)cc3OC)=NO2)CN1C(=O)[C@@H](NC(=O)CC1CCCCC1)C(C)(C)C)C(=O)C(=O)NC1CC1 [Compound 820] |  | < 100 | 
CCC[C@H](NC(=O)[C@@H]1C[C@]2(CC(c3cccc(Cl)c3)=NO2)CN1C(=O)[C@@H](NC(=O)C1(C#N)CC1)C(C)(C)C)C(=O)C(=O)NC1CC1 [Compound 823] |  | < 100 | 
CCC[C@H](NC(=O)[C@@H]1C[C@]2(CC(c3cccc(Cl)c3)=NO2)CN1C(=O)[C@@H](NC(=O)[C@H]1CC12CCOCC2)C(C)(C)C)C(=O)C(=O)NC1CC1 [Compound 826] |  | < 100 | 
CCC[C@H](NC(=O)[C@@H]1C[C@]2(CC(c3cc(C)c(OCC)c(C)c3)=NO2)CN1C(=O)[C@@H](NC(=O)[C@@H]1C[C@H]1c1ccccc1)C(C)(C)C)C(=O)C(=O)NC [Compound 828] |  | < 100 | 
CNC(=O)C(=O)[C@H](CC1CC1)NC(=O)[C@@H]1C[C@]2(CC(c3cccc(Cl)c3)=NO2)CN1C(=O)[C@@H](NC(=O)[C@@H]1C[C@H]1c1c[nH]cn1)C(C)(C)C [Compound 832] |  | 100 to 500 | 
CNC(=O)C(=O)[C@H](CC1CC1)NC(=O)[C@@H]1C[C@]2(CC(c3cccc(Cl)c3)=NO2)CN1C(=O)[C@@H](NC(=O)[C@H]1C[C@@H]1c1c[nH]cn1)C(C)(C)C [Compound 833] |  | < 100 | 
CCNC(=O)C(=O)[C@H](CC1CC1)NC(=O)[C@@H]1C[C@]2(CC(c3cccc(Cl)c3)=NO2)CN1C(=O)[C@@H](NC(=O)CC1CCCCC1)C(C)(C)C [Compound 836] |  | < 100 | 
CCNC(=O)C(=O)[C@H](CC1CC1)NC(=O)[C@@H]1C[C@]2(CC(c3cc(C)c(OC)c(C)c3)=NO2)CN1C(=O)[C@@H](NC(=O)[C@@H]1CC1c1ccccc1)C(C)(C)C (stereo partly shown) [Compound 845] |  | < 100 | 
CNC(=O)C(=O)[C@H](CC1CC1)NC(=O)[C@@H]1C[C@]2(CC(c3cccc(Cl)c3)=NO2)CN1C(=O)[C@@H](NC(=O)[C@@H]1CC12CCCCC2)C(C)(C)C [Compound 850] |  | < 100 | 
CNC(=O)C(=O)[C@H](CC1CC1)NC(=O)[C@@H]1C[C@]2(CC(c3cccc(Cl)c3)=NO2)CN1C(=O)[C@@H](NC(=O)OC1CCC1)C(C)(C)C [Compound 851] |  | < 100 | 
CCNC(=O)C(=O)[C@H](CC1CC1)NC(=O)[C@@H]1C[C@]2(CC(c3cc(C)c(OC)c(Cl)c3)=NO2)CN1C(=O)[C@@H](NC(=O)[C@@H]1C[C@H]1c1ccccc1)C(C)(C)C [Compound 856] |  | < 100 | 
CCC[C@H](NC(=O)[C@@H]1C[C@]2(CC(c3cc(C)c(OCC)c(C)c3)=NO2)CN1C(=O)[C@@H](NC(=O)OC1CCCC1)C(C)(C)C)C(=O)C(=O)NC1CC1 [Compound 860] |  | < 100 | 
CNC(=O)C(=O)[C@H](CC1CC1)NC(=O)[C@@H]1C[C@]2(CC(c3cccc(Cl)c3)=NO2)CN1C(=O)[C@@H](NC(=O)[C@@H]1C[C@H]1c1ccccc1OC)C(C)(C)C [Compound 867] |  | < 100 | 
